Experimental data: patent EP4467141A1, “PYRAZOLO-QUINOLINES AS SELECTIVE INHIBITORS OF GENOTOXIC STRESS-INDUCED IKK/NF- KB PATHWAYS FOR CANCER THERAPY” (Max-Delbrück-Centrum für Molekulare Medizin in der …, priority 2023, dated 2024)

What was measured:
Assay in all cases: Kinase panel study
Type in all cases: biochemical
[1] = target: T1, AKT1 (PKB alpha) (Homo sapiens, UniProt P31749); conditions: AKT1 (PKB alpha); compound at 10µM; read-out: % of Inhibition
T1 construct: purchased Thermo Fisher Scientific
How it was run: (§1)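 In vitro, kinase panel; ZLyte or Adapta SOP; single-concentration testing (1 or 10 µM); output = % inhibition, plus IC50 in panel.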

[2] = target: T2, AKT2 (PKB beta) (Homo sapiens, UniProt P31751); conditions: AKT2 (PKB beta); compound at 10µM; read-out: % of Inhibition
T2 construct: purchased Thermo Fisher Scientific
T2 sequence (P31751 whole entry): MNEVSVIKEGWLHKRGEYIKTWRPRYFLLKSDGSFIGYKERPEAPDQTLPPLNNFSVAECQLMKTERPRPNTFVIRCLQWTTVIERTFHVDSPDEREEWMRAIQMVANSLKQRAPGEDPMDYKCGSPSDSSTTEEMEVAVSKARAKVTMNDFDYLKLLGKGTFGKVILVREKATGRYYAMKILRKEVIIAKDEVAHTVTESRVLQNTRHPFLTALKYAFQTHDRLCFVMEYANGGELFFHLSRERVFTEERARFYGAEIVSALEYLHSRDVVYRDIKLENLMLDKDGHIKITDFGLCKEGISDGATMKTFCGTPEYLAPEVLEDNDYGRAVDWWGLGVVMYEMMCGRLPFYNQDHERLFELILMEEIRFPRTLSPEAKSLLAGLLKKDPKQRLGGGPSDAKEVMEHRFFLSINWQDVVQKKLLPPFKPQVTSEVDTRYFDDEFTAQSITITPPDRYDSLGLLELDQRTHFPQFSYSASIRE
How it was run: as §1

[3] = target: T3, AKT3 (PKB gamma) (Homo sapiens, UniProt Q9Y243); conditions: AKT3 (PKB gamma); compound at 10µM; read-out: % of Inhibition
T3 construct: purchased Thermo Fisher Scientific
T3 sequence (Q9Y243 whole entry): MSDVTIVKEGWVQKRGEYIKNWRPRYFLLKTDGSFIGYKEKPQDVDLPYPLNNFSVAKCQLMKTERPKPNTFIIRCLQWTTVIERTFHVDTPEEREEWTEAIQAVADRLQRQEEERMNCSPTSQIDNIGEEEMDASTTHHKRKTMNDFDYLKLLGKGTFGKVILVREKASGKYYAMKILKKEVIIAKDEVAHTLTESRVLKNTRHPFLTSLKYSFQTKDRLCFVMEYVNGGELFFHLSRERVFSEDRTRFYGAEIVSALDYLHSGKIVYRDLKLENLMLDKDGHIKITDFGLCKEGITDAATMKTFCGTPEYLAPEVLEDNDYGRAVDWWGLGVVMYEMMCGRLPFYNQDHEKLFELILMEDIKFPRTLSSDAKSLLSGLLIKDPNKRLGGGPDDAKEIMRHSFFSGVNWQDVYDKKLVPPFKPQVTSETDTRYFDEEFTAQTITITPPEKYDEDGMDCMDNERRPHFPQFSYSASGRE
How it was run: as §1

[4] = target: T4, BLK (Homo sapiens, UniProt P51451); conditions: BLK; compound at 10µM; read-out: % of Inhibition
T4 construct: purchased Thermo Fisher Scientific
T4 sequence (P51451 whole entry): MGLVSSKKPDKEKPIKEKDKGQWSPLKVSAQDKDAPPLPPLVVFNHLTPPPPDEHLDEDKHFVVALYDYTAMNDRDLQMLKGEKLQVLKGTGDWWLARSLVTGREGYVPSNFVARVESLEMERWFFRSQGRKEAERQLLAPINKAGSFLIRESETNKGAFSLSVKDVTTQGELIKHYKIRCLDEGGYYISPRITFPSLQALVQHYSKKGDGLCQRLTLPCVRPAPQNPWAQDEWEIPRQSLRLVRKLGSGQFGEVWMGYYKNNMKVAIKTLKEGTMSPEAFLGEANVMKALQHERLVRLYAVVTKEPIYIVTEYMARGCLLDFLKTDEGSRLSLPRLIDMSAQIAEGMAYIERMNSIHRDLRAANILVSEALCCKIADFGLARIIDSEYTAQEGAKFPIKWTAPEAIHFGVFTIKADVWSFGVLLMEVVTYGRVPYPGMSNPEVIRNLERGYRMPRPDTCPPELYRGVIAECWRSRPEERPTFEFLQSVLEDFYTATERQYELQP
How it was run: as §1

[5] = target: T5, BTK (Homo sapiens, UniProt Q06187); conditions: BTK; compound at 10µM; read-out: % of Inhibition
T5 construct: purchased Thermo Fisher Scientific
T5 sequence (Q06187 whole entry): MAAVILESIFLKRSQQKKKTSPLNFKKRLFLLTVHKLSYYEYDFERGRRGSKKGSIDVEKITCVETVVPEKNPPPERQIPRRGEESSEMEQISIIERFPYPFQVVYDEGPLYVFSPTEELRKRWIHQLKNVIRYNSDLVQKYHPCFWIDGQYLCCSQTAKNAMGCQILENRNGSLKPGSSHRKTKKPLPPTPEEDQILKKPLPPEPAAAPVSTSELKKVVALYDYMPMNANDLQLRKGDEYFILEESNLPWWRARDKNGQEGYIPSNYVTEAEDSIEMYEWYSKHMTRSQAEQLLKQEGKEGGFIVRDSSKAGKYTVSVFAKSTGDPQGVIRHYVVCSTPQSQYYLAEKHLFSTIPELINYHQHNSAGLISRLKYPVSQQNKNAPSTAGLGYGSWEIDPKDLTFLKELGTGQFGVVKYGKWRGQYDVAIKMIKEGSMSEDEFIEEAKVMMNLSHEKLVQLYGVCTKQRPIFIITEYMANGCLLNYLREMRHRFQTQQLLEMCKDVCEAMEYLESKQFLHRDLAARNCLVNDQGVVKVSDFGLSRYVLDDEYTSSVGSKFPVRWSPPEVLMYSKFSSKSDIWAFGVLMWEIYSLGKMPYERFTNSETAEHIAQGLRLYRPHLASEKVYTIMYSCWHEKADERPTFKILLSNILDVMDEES
How it was run: as §1

[6] = target: T6, IRAK1 (Homo sapiens, UniProt P51617); conditions: IRAK1; compound at 10µM; read-out: % of Inhibition
T6 construct: purchased Thermo Fisher Scientific
T6 sequence (P51617 whole entry): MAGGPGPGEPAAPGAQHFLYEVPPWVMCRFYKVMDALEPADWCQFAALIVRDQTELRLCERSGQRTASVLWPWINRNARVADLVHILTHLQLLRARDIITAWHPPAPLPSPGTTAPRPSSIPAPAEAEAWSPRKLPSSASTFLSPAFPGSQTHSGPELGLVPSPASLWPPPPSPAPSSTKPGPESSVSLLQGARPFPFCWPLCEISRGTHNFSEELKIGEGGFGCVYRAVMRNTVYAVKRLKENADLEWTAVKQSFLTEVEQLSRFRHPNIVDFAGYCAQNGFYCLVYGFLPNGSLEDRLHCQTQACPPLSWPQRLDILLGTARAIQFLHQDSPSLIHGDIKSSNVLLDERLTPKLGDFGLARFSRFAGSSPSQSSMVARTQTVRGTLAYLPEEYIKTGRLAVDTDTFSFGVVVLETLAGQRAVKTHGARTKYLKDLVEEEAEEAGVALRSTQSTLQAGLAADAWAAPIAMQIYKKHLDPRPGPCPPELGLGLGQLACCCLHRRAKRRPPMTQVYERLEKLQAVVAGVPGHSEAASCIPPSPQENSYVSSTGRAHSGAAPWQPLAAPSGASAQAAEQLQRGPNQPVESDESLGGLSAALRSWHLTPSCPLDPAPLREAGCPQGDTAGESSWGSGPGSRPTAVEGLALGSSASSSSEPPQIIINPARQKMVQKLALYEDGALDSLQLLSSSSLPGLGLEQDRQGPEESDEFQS
How it was run: as §1

[7] = target: T7, MAP4K2 (GCK) (Homo sapiens, UniProt Q12851); conditions: MAP4K2 (GCK); compound at 10µM; read-out: % of Inhibition
T7 construct: purchased Thermo Fisher Scientific
T7 sequence (Q12851 1-820): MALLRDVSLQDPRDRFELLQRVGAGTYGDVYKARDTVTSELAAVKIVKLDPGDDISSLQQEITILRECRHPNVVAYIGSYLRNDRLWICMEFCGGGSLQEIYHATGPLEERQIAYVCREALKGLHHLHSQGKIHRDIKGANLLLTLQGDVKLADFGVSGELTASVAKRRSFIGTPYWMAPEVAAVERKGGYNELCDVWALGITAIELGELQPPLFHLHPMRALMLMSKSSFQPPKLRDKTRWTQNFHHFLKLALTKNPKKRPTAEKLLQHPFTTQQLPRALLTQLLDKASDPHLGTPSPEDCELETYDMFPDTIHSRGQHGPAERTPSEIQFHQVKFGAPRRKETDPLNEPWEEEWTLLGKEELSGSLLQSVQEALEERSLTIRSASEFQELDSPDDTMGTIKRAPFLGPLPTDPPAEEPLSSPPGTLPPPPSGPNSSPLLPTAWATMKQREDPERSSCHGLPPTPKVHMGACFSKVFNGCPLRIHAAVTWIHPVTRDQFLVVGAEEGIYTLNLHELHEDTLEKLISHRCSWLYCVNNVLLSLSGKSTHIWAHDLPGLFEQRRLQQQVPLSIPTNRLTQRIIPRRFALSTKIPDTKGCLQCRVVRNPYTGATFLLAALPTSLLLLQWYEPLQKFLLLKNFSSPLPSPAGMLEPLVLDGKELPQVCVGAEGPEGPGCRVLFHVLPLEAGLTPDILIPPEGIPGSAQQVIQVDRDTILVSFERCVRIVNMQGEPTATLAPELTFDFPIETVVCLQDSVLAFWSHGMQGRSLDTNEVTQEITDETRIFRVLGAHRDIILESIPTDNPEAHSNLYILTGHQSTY
How it was run: as §1

[8] = target: T8, PIK3C2A (PI3K-C2 alpha) (Homo sapiens, UniProt O00443); conditions: PIK3C2A (PI3K-C2 alpha); compound at 10µM; read-out: % of Inhibition
T8 construct: purchased Thermo Fisher Scientific
How it was run: as §1

[9] = target: T9, PIK3CA/PIK3R3 (p11 0 alpha/p55 gamma) (Homo sapiens, UniProt P42336); conditions: PIK3CA/PIK3R3; compound at 10µM; read-out: % of Inhibition
T9 construct: purchased Thermo Fisher Scientific
T9 sequence (P42336 whole entry): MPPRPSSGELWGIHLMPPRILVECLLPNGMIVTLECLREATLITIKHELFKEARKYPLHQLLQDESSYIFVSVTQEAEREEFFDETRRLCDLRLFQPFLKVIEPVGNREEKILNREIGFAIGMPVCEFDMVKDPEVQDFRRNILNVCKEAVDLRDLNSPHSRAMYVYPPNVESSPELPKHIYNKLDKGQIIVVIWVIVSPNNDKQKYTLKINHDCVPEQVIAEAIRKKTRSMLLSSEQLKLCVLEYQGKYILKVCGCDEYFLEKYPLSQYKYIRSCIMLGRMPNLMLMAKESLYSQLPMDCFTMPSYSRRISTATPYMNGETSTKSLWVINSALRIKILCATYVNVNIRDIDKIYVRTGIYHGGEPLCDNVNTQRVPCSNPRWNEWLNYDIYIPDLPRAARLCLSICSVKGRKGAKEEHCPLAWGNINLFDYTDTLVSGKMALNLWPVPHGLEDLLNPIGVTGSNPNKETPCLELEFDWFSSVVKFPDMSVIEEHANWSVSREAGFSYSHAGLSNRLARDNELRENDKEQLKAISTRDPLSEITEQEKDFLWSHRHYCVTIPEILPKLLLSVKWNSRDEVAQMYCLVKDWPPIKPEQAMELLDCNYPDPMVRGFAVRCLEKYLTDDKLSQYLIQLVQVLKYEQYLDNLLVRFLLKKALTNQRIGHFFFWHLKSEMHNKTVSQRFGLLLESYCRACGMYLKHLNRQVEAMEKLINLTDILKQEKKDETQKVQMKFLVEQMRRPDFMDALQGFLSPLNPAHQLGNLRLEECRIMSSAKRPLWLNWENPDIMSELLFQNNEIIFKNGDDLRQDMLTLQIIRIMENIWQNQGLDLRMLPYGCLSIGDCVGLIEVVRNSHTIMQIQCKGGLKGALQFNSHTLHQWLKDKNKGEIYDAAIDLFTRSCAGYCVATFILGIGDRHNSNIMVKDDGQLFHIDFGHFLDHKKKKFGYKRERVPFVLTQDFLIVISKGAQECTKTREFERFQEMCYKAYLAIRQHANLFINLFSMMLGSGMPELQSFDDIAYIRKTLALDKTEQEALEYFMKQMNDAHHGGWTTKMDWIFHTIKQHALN
How it was run: as §1

[10] = target: T10, PIK3CB/PIK3R2 (p11 0 beta/p85 beta) (Homo sapiens, UniProt P42338); conditions: PIK3CB/PIK3R2; compound at 10µM; read-out: % of Inhibition
T10 construct: purchased Thermo Fisher Scientific
How it was run: as §1

[11] = target: T11, PIK3CG (p11 0 gamma) (Homo sapiens, UniProt P48736); conditions: PIK3CG; compound at 10µM; read-out: % of Inhibition
T11 construct: purchased Thermo Fisher Scientific
How it was run: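 Compounds were tested in vitro against the kinase panel by a service lab. Assays followed standard ZLyte or Adapta protocols. Activity was recorded as % inhibition at 10 µM or 1 µM, with IC50 values where determined.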

[12] = target: T12, PIP4K2A (Homo sapiens, UniProt P48426); conditions: PIP4K2A; compound at 10µM; read-out: % of Inhibition
T12 construct: purchased Thermo Fisher Scientific
T12 sequence (P48426 1-406): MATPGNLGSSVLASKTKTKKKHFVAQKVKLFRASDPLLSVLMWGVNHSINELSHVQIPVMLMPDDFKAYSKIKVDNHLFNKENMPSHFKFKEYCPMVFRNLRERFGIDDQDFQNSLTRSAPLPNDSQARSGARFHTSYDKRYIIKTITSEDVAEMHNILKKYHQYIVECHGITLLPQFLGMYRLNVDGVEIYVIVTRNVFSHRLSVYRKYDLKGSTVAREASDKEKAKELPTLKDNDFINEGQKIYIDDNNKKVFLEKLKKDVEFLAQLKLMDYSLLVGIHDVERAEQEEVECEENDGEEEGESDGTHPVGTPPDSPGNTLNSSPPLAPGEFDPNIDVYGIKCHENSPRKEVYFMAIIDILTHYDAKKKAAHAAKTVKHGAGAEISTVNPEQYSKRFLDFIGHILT
How it was run: as §1

[13] = target: T13, PIP5K1B (Homo sapiens, UniProt O14986); conditions: PIP5K1B; compound at 10µM; read-out: % of Inhibition
T13 construct: purchased Thermo Fisher Scientific
T13 sequence (O14986 whole entry): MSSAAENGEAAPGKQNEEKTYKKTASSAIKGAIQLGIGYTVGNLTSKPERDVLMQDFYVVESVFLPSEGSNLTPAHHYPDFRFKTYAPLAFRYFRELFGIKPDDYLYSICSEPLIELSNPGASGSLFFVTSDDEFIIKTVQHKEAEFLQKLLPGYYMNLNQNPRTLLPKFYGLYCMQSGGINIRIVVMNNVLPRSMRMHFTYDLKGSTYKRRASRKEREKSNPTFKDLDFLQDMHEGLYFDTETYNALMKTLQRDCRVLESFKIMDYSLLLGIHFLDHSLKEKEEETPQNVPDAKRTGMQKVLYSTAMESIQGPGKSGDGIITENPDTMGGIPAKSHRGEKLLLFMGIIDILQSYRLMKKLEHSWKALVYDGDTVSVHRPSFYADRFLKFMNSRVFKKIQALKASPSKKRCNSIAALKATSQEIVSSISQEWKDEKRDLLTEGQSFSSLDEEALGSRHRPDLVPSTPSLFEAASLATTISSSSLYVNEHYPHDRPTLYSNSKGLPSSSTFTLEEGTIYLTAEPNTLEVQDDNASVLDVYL
How it was run: as §1

SMILES: COc1ccc2nc3c(cc2c1)c(N)nn3C(=O)c1cccc(N(C)C)c1 [MW05-E2, 1-[3-(dimethylamino)benzoyl]-6-methoxy-1H-pyrazolo[3,4-b]quinolin-3-amine]
- inhibition at 10 µM [1]: 9%
- inhibition at 10 µM [2]: 8%
- inhibition at 10 µM [3]: 11%
- inhibition at 10 µM [4]: 10%
- inhibition at 10 µM [5]: 7%
- inhibition at 10 µM [6]: 2%
- inhibition at 10 µM [7]: 2%
- inhibition at 10 µM [8]: 10%
- inhibition at 10 µM [9]: 8%
- inhibition at 10 µM [10]: 7%
- inhibition at 10 µM [11]: 2%
- inhibition at 10 µM [12]: -6%
- inhibition at 10 µM [13]: -12%
